Patent US11542234B2, “2-alkoxy-6-[18F]fluoronicotinoyl substituted lys-c(O)-glu derivatives as efficient probes for imaging of PSMA expressing tissues” (Universität zu Köln, priority 2018, dated 2023)
Read-outs that look alike come from different tables or passages of the source.

Key:
PSMA^+ LNCaP C4-2 cells = experiment: Cellular uptake in PSMA positive LNCaP C4-2 cells; type: cell-based; conditions: for cellular uptake under inhibition with 2-PMPA: in the presence of 2-PMPA (100 μM/well)
Method: (§1) The PSMA specificity of the tracer uptake in LNCaP C4-2 was confirmed by complete inhibition with 2-PMPA (≤0.1% ID/10^5 cells). The enrichment of both tracers in PSMA^− PC3 cells was negligible (≤0.1% ID/10^5 cells).
(§2) PSMA^− PC-3 cells were cultured in RPMI-1640 medium supplemented with FBS (10%) and penicillin/streptomycin (1%). PSMA* LNCaP C4-2 cells were cultured in a mixture of DMEM: Ham's F-12K (Kaighn's) mediums (4:1) supplemented with FBS (5%), NaHCO3(3 g/L), insulin (5 μg/mL), triiodothyronine ([…]), transferrin (5 μg/mL), biotin (0.25 μg/ml) and adenine (25 μg/mL). Both cell lines were grown in 75 mL flasks containing 10 mL of the culture medium in a humidified atmosphere of 5% CO2/95% air at 37° C. for 4-5 days until they reached 80-90% confluency. Cells were seeded into 12-well plates (1×10^5 cells/well containing 1 mL medium) 24 h before the beginning of the cellular uptake experiments.
2-(Phosphonomethyl)pentanedioic acid (2-PMPA; 100 μM/well) was used for blocking studies. Thereafter, the cells were washed two times with medium (1 mL), trypsinized, harvested and the accumulated radioactivity was measured in a gamma counter (Wizard 1470, PerkinElmer, Massachusetts, USA). The cellular uptake of the novel PSMA-selective candidates and [^18F]DCFPyL obtained in experiments performed in parallel were compared. Each cellular uptake experiment was carried out in triplicate.

PSMA [1] = target: T1, PSMA (Rattus norvegicus, UniProt P70627); experiment: PET study of PSMA-specific tracers in healthy rats; type: in vivo; conditions: for signal-to-noise ratio (SCG), printed in text with / SCG signal-to-noise ratio / SCG % ID / Bone % ID / Liver % ID: PET 60-120 min after injection; for SCG signal-to-noise ratio: background dorsal from cervical vertebral column
T1 construct: ganglia as natural PSMA-expressing tissues remain constant over a long time; from tissue; host or cells: healthy Long Evans rats in vivo
T1 sequence (P70627 whole entry): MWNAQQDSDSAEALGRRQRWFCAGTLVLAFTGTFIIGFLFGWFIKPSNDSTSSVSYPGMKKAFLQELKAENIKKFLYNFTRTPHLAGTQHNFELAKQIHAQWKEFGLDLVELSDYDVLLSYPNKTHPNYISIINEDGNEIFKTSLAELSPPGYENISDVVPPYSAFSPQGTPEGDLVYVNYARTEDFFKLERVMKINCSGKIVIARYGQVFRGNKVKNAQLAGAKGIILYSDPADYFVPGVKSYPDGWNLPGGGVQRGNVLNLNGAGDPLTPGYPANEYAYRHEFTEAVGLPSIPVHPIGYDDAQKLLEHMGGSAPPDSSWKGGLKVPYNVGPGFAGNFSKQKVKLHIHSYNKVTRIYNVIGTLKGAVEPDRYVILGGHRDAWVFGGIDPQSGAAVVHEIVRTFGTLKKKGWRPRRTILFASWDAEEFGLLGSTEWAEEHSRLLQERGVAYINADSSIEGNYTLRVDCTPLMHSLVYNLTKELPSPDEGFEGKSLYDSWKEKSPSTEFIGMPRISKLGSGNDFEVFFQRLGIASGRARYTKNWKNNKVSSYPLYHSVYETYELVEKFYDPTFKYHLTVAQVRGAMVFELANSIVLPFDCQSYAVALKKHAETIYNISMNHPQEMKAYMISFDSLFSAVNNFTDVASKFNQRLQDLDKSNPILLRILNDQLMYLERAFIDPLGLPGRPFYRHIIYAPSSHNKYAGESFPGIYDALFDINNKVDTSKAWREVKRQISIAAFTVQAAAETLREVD
Description: Ganglia represent an ideal tissue for the evaluation of PSMA binding imaging probes. Having a size of 1-2 mm these structures are sufficiently small to imitate metastases in a very early stage. Ganglionic PSMA is expressed by satellite glial cells, which envelop the neuronal cell bodies of the trigeminal ganglion,^[25] spinal dorsal root ganglia and ganglia of the autonomic nervous system.^[26] […] Rat PSMA comprises 752 amino acids (vs. 750 in humans), and has about 91% homology to the human PSMA. Importantly, all amino acid residues of the active site are essentially the same as those in the human homologue with the only exception of Gly^548 in the human and Ser^548 in the rat protein, respectively^[28]
Conditions: Uptake of different PSMA-specific tracers in healthy rats measured by PET. Conditions: PET scanner (Focus 220, Siemens); 57-71 MBq tracer was injected. PET scans started 60 min after injection and continued for 60 min. % ID was determined by dividing each image by the injected dose and multiplying it by body weight. […] Background activity for calculation of signal-to-noise ratio was measured dorsal from the cervical vertebral column with a 390 mm^3 VOI.
Animals: Experiments were carried out in accordance with the EU directive 2010/63/EU for animal experiments and the German Animal Welfare Act (TierSchG, 2006), and were approved by regional authorities (LANUV NRW). Long Evans rats (250-590 g body weight) were used for this study. Rats were housed in pairs in individually ventilated cages (NexGen EcoFlo, cages RAT1800 with 1805 cm^2 floor space and 41 cm height; Allentown Inc., Allentown, N.J., USA) under controlled ambient conditions (22±1° C. and 55±5% relative humidity) on an inversed 12 hour light/dark schedule (lights on 9:00 p.m.-9:00 a.m.). Food and water were available at all times. Three rats received two, and one rat received three different tracers. The other seven rats were measured with one tracer only. Each tracer was measured in three animals.
PET-imaging: Prior to PET measurements with PET probes, animals were anesthetized (initial dosage: 5% isoflurane in 02/air (3:7), then reduction to 2%), and a catheter for tracer injection was inserted into the lateral tail vein. Rats were placed on an animal holder (Medres, Cologne, Germany), and fixed with a tooth bar in a respiratory mask. Dynamic PET scans in a list mode were performed using a Focus 220 micro PET scanner (CTI-Siemens, Germany) with a resolution at a center of field of view of 1.4 mm. Data acquisition started with tracer injection (66±14 MBq in 0.5 mL i.v.), continued for 120 min and was followed by a 10 min transmission scan using a ^57Co point source. For blocking studies 2-(phosphonomethyl)pentanedioic acid (2-PMPA; 23 mg/kg) was added directly to a radiotracer solution. Breathing rate was monitored and kept around 60/min by adjusting isoflurane concentration (1.5-2.5%). Body temperature was maintained at 37° C. by a feedback-controlled system. Following Fourier rebinning, data were reconstructed using an iterative OSEM3D/MAP procedure78 including attenuation and decay correction in two different ways: 1) 28 frames (2×1 min; 2×2 min, 6×4 min, 18×5 min) for compilation of regional time activity curves; 2) 4 frames (4×30 min) for visual display. Resulting voxel sizes were always 0.38×0.38×0.79 mm.
Data analysis was performed using the software VINCI.79 Images were Gauss filtered (1 mm FWHM), and % ID was determined by dividing each image by the injected dose and multiplying the result by body weight times 100. Mean % ID values were extracted from each of the 28 frames and plotted over time.

PSMA [2] = target: T2, PSMA (Homo sapiens, UniProt Q04609); experiment: Pilot PET/CT study in 10 patients, comparison with [68Ga]Ga-PSMA-HBED-CC; type: in vivo
T2 construct: from tissue; host or cells: patients with prostate cancer or biochemical recurrence, in vivo PET/CT
T2 sequence (Q04609 whole entry): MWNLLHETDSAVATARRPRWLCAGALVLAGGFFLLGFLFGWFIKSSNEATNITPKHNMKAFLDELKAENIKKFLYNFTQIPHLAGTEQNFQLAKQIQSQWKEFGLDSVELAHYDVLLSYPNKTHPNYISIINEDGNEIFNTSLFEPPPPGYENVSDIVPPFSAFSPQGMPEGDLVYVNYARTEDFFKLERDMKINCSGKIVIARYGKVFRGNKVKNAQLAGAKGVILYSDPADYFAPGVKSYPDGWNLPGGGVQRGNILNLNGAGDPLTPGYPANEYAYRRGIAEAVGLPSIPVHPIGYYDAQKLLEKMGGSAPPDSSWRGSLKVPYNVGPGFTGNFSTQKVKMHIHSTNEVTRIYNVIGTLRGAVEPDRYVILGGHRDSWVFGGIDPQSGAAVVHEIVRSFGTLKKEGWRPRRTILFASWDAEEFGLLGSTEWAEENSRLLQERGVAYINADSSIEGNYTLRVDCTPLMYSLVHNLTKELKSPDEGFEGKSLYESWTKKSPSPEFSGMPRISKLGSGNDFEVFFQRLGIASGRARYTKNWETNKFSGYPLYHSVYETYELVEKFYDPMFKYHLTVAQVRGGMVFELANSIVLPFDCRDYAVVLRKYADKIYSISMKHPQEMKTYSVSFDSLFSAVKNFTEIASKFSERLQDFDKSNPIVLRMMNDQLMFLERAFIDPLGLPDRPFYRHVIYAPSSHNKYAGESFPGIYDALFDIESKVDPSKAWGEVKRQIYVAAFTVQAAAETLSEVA
Method: Owing to the favorable imaging properties of 2-MeO-[^18F]PSMA in rats a small pilot study with this tracer in 10 patients was conducted. All patients were examined with both [^68Ga]Ga-PSMA-HBED-CC and 2-MeO-[^18F]PSMA PET CT. In each case, both PET/CT scans were carried out within three weeks. […] In four patients, at least one additional PSMA-positive lesion using 2-MeO-[^18F]PSMA compared to the corresponding [^68Ga]Ga-PSMA-HBED-CC image was identified (FIG. 6B). In one patient inconspicuous in the [^68Ga]Ga-PSMA-HBED-CC scan, a PSMA-positive lesion was discovered by 2-MeO-[^18F]PSMA PET/CT (FIG. 6C).
(§3) The study was conducted in accordance with the Institutional Review Board. All patients gave written informed consent to PET imaging and inclusion of their data in a retrospective analysis. All procedures were performed in compliance with the regulations of the responsible local authorities (District Administration of Cologne, Germany).
(§4) All measurements with [^68Ga]Ga-PSMA-HBED-CC and [^18F]-2-MeO-PSMA were carried out as described in the literature.^[14a, 15]

PSMA [3] = target: T2, PSMA; experiment: PSMA-PET imaging of patients with biochemical recurrence of prostate cancer; type: in vivo; conditions: 124 patients with biochemical recurrence (BCR) of PCa
Method: In the subsequent larger study, 124 patients with biochemical recurrence (BCR) of PCa were examined.
as §3, §4

PSMA^− PC-3 cells = experiment: Cellular uptake in PSMA negative PC3 cells; type: cell-based
Method: as §1, §2
The corresponding PSMA specific PET probe was added to the cells (100-150 kBq/well) and the cells were incubated at 37° C. for 1 and 2 h. 2-(Phosphonomethyl)pentanedioic acid (2-PMPA; 100 μM/well) was used for blocking studies. Thereafter, the cells were washed two times with medium (1 mL), trypsinized, harvested and the accumulated radioactivity was measured in a gamma counter (Wizard 1470, PerkinElmer, Massachusetts, USA). […]

[4] = meta-analysis of data of 251 patients, detecting recurrent PCa; cited from earlier work
PSMA [5] = target: T2, PSMA; conditions: determined earlier, for comparison; cited from earlier work
[6] = 2 h incubation, 2-MeO-[18F]PSMA and [18F]DCFPyL in parallel (FIG. 4A)
[7] = 4 h incubation, 2-MeO-[18F]PSMA and [18F]DCFPyL in parallel (FIG. 4A)
[8] = 2 h incubation, 4-MeO-[18F]PSMA and [18F]DCFPyL in parallel (FIG. 4B)
[9] = 4 h incubation, 4-MeO-[18F]PSMA and [18F]DCFPyL in parallel (FIG. 4B)
[10] = co-application of 2-PMPA (23 mg/kg)

SCG signal-to-noise ratio (PSMA [1]) | SCG % ID (PSMA [1]; superior cervical ganglion) [% ID] | Bone % ID (PSMA [1]) [% ID] | Liver % ID (PSMA [1]) [% ID] | Compound | cellular uptake (PSMA^+ LNCaP C4-2 cells; [6]) [% ID/10^5 cells] | cellular uptake (PSMA^+ LNCaP C4-2 cells; [7]) [% ID/10^5 cells] | cellular uptake under inhibition with 2-PMPA (PSMA^+ LNCaP C4-2 cells) | signal-to-noise ratio (SCG), printed in text with (PSMA [1]) | cellular uptake (PSMA^+ LNCaP C4-2 cells; [8]) [% ID/10^5 cells] | cellular uptake (PSMA^+ LNCaP C4-2 cells; [9]) [% ID/10^5 cells] | also measured
8.2 ± 1.7 | 31.3±10.5 |  |  | COc1nc([18F])ccc1C(=O)NCCCC[C@H](NC(=O)N[C@@H](CCC(=O)O)C(=O)O)C(=O)O [2-MeO-[^18F]PSMA] | 2.03±0.03 | 3.31±0.01 | ≤ 0.1 % ID/10^5 cells | 8.2 ± 1.7 |  |  | patients inconspicuous in the [68Ga]Ga-PSMA-HBED-CC scan in whom a PSMA-positive lesion was discovered (PSMA [2]): one; patients with at least one additional PSMA-positive lesion compared to the corresponding [68Ga]Ga-PSMA-HBED-CC image (PSMA [2]; both PET/CT scans within three weeks): four; sensitivity (PSMA [3]): 83.0%
4.6±1.3 | 14.4±2.6 | 19.2±2.1 | 29.0±7.2 | COc1cc([18F])ncc1C(=O)NCCCC[C@H](NC(=O)N[C@@H](CCC(=O)O)C(=O)O)C(=O)O [4-MeO-[^18F]PSMA] |  |  | completely blocked |  | 0.79±0.04 | 0.90±0.04 | enrichment in PSMA^− PC3 cells (PSMA^− PC-3 cells): very low
 | 20.2 ± 5.8 | 12.4 ± 4.3 | 65.3 ± 21.7 | O=C(O)CC[C@H](NC(=O)N[C@@H](CCCCNC(=O)c1ccc([18F])nc1)C(=O)O)C(=O)O [[^18F]DCFPyL] | 1.55±0.05 | 3.1±0.03 |  |  | 1.53±0.03 | 3.16±0.01 | uptake in the ganglion of the trigeminal nerve (PSMA [1]; 60-120 min after injection): 37.9±9.9 % ID; Liver % ID (PSMA [1]; [10]): remained at the same level; SCG % ID (PSMA [1]; [10]): 4.6±1.8 % ID
 |  |  |  | N[C@]1(C(=O)O)C[C@@H]([18F])C1 [[^18F]FACBC, anti-1-amino-3-[^18F]fluorocyclobutane-1-carboxylic acid] |  |  |  |  |  |  | sensitivity [4]: 87%; specificity [4]: 66%
4.5±0.1 | 41.0±3.4 | 18.5 ± 0.6 | 47.0 ± 10.3 | O=C([O-])CN(CCN(CC(=O)[O-])Cc1cc(CCC(=O)NCCCCCC(=O)NCCCC[C@H](NC(=O)N[C@@H](CCC(=O)O)C(=O)O)C(=O)O)ccc1[O-])Cc1cc(CCC(=O)O)ccc1[O-].[68Ga+3].[OH3+] [[^68Ga]Ga-PSMA-HBED-CC] |  |  |  |  |  |  | SCG signal-to-noise ratio (PSMA [1]; listed as [^68Ga]PSMA-HBED-CC): 4.5 ± 0.1; SCG % ID (PSMA [1]; superior cervical ganglion, listed as [^68Ga]PSMA-HBED-CC): 41.0 ± 3.4 % ID; sensitivity (PSMA [5]): 74.2%

Compound | SCG signal-to-noise ratio (PSMA [1]) | SCG % ID (PSMA [1]; superior cervical ganglion) [% ID] | Bone % ID (PSMA [1]) [% ID] | Liver % ID (PSMA [1]) [% ID] | cellular uptake (PSMA^+ LNCaP C4-2 cells; [6]) [% ID/10^5 cells] | cellular uptake (PSMA^+ LNCaP C4-2 cells; [7]) [% ID/10^5 cells] | cellular uptake under inhibition with 2-PMPA (PSMA^+ LNCaP C4-2 cells) | signal-to-noise ratio (SCG), printed in text with (PSMA [1]) | cellular uptake (PSMA^+ LNCaP C4-2 cells; [8]) [% ID/10^5 cells] | cellular uptake (PSMA^+ LNCaP C4-2 cells; [9]) [% ID/10^5 cells] | also measured
O=C(O)CC[C@H](NC(=O)N[C@@H](CCCCNC(=O)[C@H](Cc1ccc2ccccc2c1)NC(=O)c1ccc(CNC(=O)[C@H](CCC(=O)O)NC(=O)[C@H](CCC(=O)O)NC(=O)c2ccc([18F])nc2)cc1)C(=O)O)C(=O)O [[^18F]PSMA-1007] | 6.2 ± 1.9 |  | 33.2±9.5 | 50.7 ± 4.3 |  |  |  | 6.2 ± 1.9 |  |  | 
